Laboratory results: article PMC8699473, “An Easily Expandable Multi-Drug LC-MS Assay for the Simultaneous Quantification of 57 Oral Antitumor Drugs in Human Plasma” (Cancers, 2021)

Test: Long-term stability in spiked pooled human plasma

Compound | Long-term stability, 1 month, -20°C Accuracy [%] (validation standard 2xLLOV) | Long-term stability, 1 month, -80°C Accuracy [%] (validation standard 2xLLOV) | Long-term stability, 2 month, -20°C Accuracy [%] (validation standard 2xLLOV) | Long-term stability, 2 month, -80°C Accuracy [%] (validation standard 2xLLOV) | Long-term stability, 3 month, -20°C Accuracy [%] (validation standard 2xLLOV) | Long-term stability, 3 month, -80°C Accuracy [%] (validation standard 2xLLOV) | Long-term stability, 6 weeks, 4°C, without daylight Accuracy [%] (validation standard 2xLLOV) | Long-term stability, 1 month, -20°C Accuracy [%] (validation standard LLOV) | Long-term stability, 1 month, -80°C Accuracy [%] (validation standard LLOV) | Long-term stability, 2 month, -20°C Accuracy [%] (validation standard LLOV) | Long-term stability, 2 month, -80°C Accuracy [%] (validation standard LLOV) | Long-term stability, 3 month, -20°C Accuracy [%] (validation standard LLOV) | Long-term stability, 3 month, -80°C Accuracy [%] (validation standard LLOV) | Long-term stability, 1 month, -20°C Accuracy [%] (validation standard MOV) | Long-term stability, 1 month, -80°C Accuracy [%] (validation standard MOV) | Long-term stability, 2 month, -20°C Accuracy [%] (validation standard MOV) | Long-term stability, 2 month, -80°C Accuracy [%] (validation standard MOV) | Long-term stability, 3 month, -20°C Accuracy [%] (validation standard MOV) | Long-term stability, 3 month, -80°C Accuracy [%] (validation standard MOV) | Long-term stability, 6 weeks, 4°C, without daylight Accuracy [%] (validation standard MOV) | further results
CNC(=O)c1ccc(N2C(=S)N(c3cnc(C#N)c(C(F)(F)F)c3)C(=O)C23CCC3)cc1F [Apalutamide] | 94.7 | 93.2 | 91.6 | 100.0 | 85.1 | 94.9 | 73.5 | 96.1 | 100.0 | 93.4 | 102.3 | 90.4 | 98.4 | 89.4 | 91.1 | 90.2 | 97.6 | 86.8 | 89.7 | 54.9 | Long-term stability, 6 weeks, 4°C, without daylight Accuracy [%] (validation standard LLOV): 78.5%; Long-term stability, 1 month, -20°C Accuracy [%] (validation standard ULOV): 90.6%; Long-term stability, 1 month, -80°C Accuracy [%] (validation standard ULOV): 90.2%; Long-term stability, 2 month, -20°C Accuracy [%] (validation standard ULOV): 88.9%; Long-term stability, 2 month, -80°C Accuracy [%] (validation standard ULOV): 95.9%; Long-term stability, 3 month, -20°C Accuracy [%] (validation standard ULOV): 78.8%; Long-term stability, 3 month, -80°C Accuracy [%] (validation standard ULOV): 90.1%; Long-term stability, 6 weeks, 4°C, without daylight Accuracy [%] (validation standard ULOV): 48.1%
COc1cc2ncnc(Nc3ccc(F)c(Cl)c3)c2cc1OCCCN1CCOCC1 [Gefitinib] | 99.2 | 94.2 | 105.6 | 108.5 | 103.9 | 101.3 | 89.3 | 95.8 | 89.0 | 101.3 | 102.7 | 100.2 | 99.5 | 100.7 | 99.3 | 105.1 | 104.1 | 102.7 | 99.9 | 105.7 | Long-term stability, 6 weeks, 4°C, without daylight Accuracy [%] (validation standard LLOV): 78.5%; Long-term stability, 1 month, -20°C Accuracy [%] (validation standard ULOV): 98.5%; Long-term stability, 1 month, -80°C Accuracy [%] (validation standard ULOV): 93.5%; Long-term stability, 2 month, -20°C Accuracy [%] (validation standard ULOV): 99.2%; Long-term stability, 2 month, -80°C Accuracy [%] (validation standard ULOV): 101.3%; Long-term stability, 3 month, -20°C Accuracy [%] (validation standard ULOV): 99.2%; Long-term stability, 3 month, -80°C Accuracy [%] (validation standard ULOV): 99.2%; Long-term stability, 6 weeks, 4°C, without daylight Accuracy [%] (validation standard ULOV): 97.6%
Cc1[nH]c2ccccc2c1CCNCc1ccc(/C=C/C(=O)NO)cc1 [Panobinostat] | 52.2 | 59.0 | 66.3 | 107.6 | 57.5 | 67.6 | 11.4 | 38.2 | 33.7 | 21.2 | 29.9 | 8.2 | 34.0 | 82.0 | 84.1 | 75.7 | 87.5 | 66.1 | 82.1 | 67.6 | Long-term stability, 1 month, -20°C Accuracy [%] (validation standard ULOV): 89.6%; Long-term stability, 1 month, -80°C Accuracy [%] (validation standard ULOV): 89.9%; Long-term stability, 2 month, -20°C Accuracy [%] (validation standard ULOV): 98.1%; Long-term stability, 2 month, -80°C Accuracy [%] (validation standard ULOV): 99.4%; Long-term stability, 3 month, -20°C Accuracy [%] (validation standard ULOV): 87.5%; Long-term stability, 3 month, -80°C Accuracy [%] (validation standard ULOV): 100.2%; Long-term stability, 6 weeks, 4°C, without daylight Accuracy [%] (validation standard ULOV): 79.4%
Nc1cccc2c1C(=O)N(C1CCC(=O)NC1=O)C2=O (stereo not shown) [Pomalidomide] | 90.4 | 90.2 | 107.3 | 96.6 | 95.5 | 97.4 | 19.0 | 91.3 | 85.8 | 95.9 | 99.9 | 97.6 | 97.4 | 90.6 | 88.3 | 97.2 | 99.4 | 90.0 | 94.9 | 15.7 | Long-term stability, 6 weeks, 4°C, without daylight Accuracy [%] (validation standard LLOV): 30.1%; Long-term stability, 1 month, -20°C Accuracy [%] (validation standard ULOV): 94.6%; Long-term stability, 1 month, -80°C Accuracy [%] (validation standard ULOV): 89.1%; Long-term stability, 2 month, -20°C Accuracy [%] (validation standard ULOV): 94.1%; Long-term stability, 2 month, -80°C Accuracy [%] (validation standard ULOV): 99.0%; Long-term stability, 3 month, -20°C Accuracy [%] (validation standard ULOV): 87.6%; Long-term stability, 3 month, -80°C Accuracy [%] (validation standard ULOV): 95.1%; Long-term stability, 6 weeks, 4°C, without daylight Accuracy [%] (validation standard ULOV): 11.3%
Nc1cccc2c1CN(C1CCC(=O)NC1=O)C2=O (stereo not shown) [Lenalidomide] | 112.2 | 103.2 | 97.9 | 104.0 | 99.5 | 104.1 | 15.8 | 104.5 | 96.6 | 52.8 | 56.2 | 69.1 | 82.4 | 93.9 | 93.9 | 101.8 | 104.0 | 92.9 | 96.0 | 19.7 | Long-term stability, 1 month, -20°C Accuracy [%] (validation standard ULOV): 92.6%; Long-term stability, 1 month, -80°C Accuracy [%] (validation standard ULOV): 88.5%; Long-term stability, 2 month, -20°C Accuracy [%] (validation standard ULOV): 95.8%; Long-term stability, 2 month, -80°C Accuracy [%] (validation standard ULOV): 98.8%; Long-term stability, 3 month, -20°C Accuracy [%] (validation standard ULOV): 89.8%; Long-term stability, 3 month, -80°C Accuracy [%] (validation standard ULOV): 94.4%; Long-term stability, 6 weeks, 4°C, without daylight Accuracy [%] (validation standard ULOV): 16.2%
Cc1cn(-c2cc(NC(=O)c3ccc(C)c(Nc4nccc(-c5cccnc5)n4)c3)cc(C(F)(F)F)c2)cn1 [Nilotinib] | 95.1 | 89.2 | 96.9 | 99.7 | 91.6 | 92.2 | 103.4 | 91.9 | 89.8 | 93.3 | 97.4 | 90.5 | 93.1 | 95.6 | 91.9 | 99.1 | 98.0 | 96.9 | 93.1 | 101.7 | Long-term stability, 6 weeks, 4°C, without daylight Accuracy [%] (validation standard LLOV): 102.0%; Long-term stability, 1 month, -20°C Accuracy [%] (validation standard ULOV): 94.2%; Long-term stability, 1 month, -80°C Accuracy [%] (validation standard ULOV): 90.9%; Long-term stability, 2 month, -20°C Accuracy [%] (validation standard ULOV): 97.5%; Long-term stability, 2 month, -80°C Accuracy [%] (validation standard ULOV): 97.0%; Long-term stability, 3 month, -20°C Accuracy [%] (validation standard ULOV): 93.1%; Long-term stability, 3 month, -80°C Accuracy [%] (validation standard ULOV): 91.6%; Long-term stability, 6 weeks, 4°C, without daylight Accuracy [%] (validation standard ULOV): 98.0%
